One data set relates to MCF7 (human breast adenocarcinoma) cells. The experiment in a line: MTT cytotoxicity assay, MCF7. The class given is cell-based. The note with it: Homo sapiens, MCF7, mean ± SD of triplicate. As for the experimental part:
(§1) The cytotoxicity of the synthesised quinazolin-4(3H)-ones was evaluated by MTT assay, as previously described. Two cancer cell lines, MCF7 (human breast adenocarcinoma) and A2780 (human ovary adenocarcinoma), were used in this study, which were obtained from the ATCC (Rockville, MD, USA). […] Additionally, compounds were prepared at the same medium to obtain serial dilutions (50, 25, […] and 0.1 µM). […] The media were aspirated, and the formazan crystals were solubilised by adding 150 µL DMSO. Absorbance was read on a multi-plate reader (BioRad) at […]. […] The data were obtained from triplicates and analysed using statistical software.
Background: Formazan colour is commonly taken as a measure of viable cells.
The molecule `CCOC(=O)CSc1nc2cc(OC)c(OC)cc2c(=O)n1Cc1ccccc1` [2i, Ethyl 2-((3-benzyl-6,7-dimethoxy-4-oxo-3,4-dihydroquinazolin-2-yl)thio)acetate] yielded an IC50 of 2700 ± 160 nM.

The target of a further data set is T1, CDK2/CyclinA2 (Homo sapiens, UniProt P24941).
T1 construct: purchased #79599
The experiment in a line: CDK2 Assay Kit, Kinase-Glo MAX luminescence. The conditions noted are these: mean ± SD of triplicate. It is filed as biochemical.
The molecule `CCOC(=O)CSc1nc2cc(OC)c(OC)cc2c(=O)n1Cc1ccccc1` [2i, Ethyl 2-((3-benzyl-6,7-dimethoxy-4-oxo-3,4-dihydroquinazolin-2-yl)thio)acetate] showed an IC50 of 173 ± 12 nM.

The target of a further data set is T2, VEGFR2 (Homo sapiens, UniProt P35968).
T2 construct: purchased #40325
T2 sequence (P35968 20-1356): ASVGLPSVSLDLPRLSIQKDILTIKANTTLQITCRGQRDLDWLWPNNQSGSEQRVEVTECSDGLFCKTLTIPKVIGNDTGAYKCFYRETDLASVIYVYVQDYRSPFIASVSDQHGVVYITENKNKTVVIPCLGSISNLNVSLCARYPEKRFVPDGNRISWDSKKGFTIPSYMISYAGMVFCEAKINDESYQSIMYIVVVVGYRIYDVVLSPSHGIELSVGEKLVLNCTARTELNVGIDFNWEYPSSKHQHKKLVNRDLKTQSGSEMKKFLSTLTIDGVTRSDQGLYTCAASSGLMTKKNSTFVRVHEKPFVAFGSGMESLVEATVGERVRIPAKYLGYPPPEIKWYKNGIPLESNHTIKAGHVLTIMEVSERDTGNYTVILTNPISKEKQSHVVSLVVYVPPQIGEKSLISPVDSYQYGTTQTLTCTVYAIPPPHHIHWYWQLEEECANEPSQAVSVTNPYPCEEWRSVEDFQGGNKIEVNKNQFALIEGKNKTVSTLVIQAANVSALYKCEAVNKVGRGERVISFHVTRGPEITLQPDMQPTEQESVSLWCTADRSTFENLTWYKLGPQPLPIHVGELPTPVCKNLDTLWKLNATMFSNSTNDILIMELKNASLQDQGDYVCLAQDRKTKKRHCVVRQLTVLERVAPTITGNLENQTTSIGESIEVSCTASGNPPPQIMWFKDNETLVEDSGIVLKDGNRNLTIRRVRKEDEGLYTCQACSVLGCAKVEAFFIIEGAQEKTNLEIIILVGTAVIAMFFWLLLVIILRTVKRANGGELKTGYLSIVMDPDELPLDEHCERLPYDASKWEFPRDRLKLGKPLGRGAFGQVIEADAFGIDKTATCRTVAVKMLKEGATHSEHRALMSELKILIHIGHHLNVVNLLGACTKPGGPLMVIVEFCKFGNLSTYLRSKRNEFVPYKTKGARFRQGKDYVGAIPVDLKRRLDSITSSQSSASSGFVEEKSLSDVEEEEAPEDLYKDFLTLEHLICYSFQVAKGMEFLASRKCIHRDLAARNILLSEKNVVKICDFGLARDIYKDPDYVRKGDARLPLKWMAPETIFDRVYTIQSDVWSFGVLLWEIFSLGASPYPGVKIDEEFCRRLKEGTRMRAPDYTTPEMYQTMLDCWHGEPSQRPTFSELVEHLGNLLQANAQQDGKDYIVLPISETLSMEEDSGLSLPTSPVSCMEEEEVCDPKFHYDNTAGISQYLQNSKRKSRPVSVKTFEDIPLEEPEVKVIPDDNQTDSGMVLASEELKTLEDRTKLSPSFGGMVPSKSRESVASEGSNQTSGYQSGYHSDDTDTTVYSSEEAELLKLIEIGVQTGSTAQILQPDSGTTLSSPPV
The data set is described as follows: VEGFR2 kinase assay kit, Kinase-Glo MAX luminescence. The note with it: 0.01 µM; one experimental data; read-out: % Inhibition VEGFR-2. The class given is biochemical. On the procedure:
(§2) The HER2/EGFR/VEGFR2 assay kit is designed to measure HER2/EGFR/VEGFR-2 inhibitory activity for screening and profiling applications, using Kinase-Glo® MAX as a detection reagent. The HER2/EGFR/VEGFR2 assay kit comes in a convenient 96-well format, with enough purified recombinant HER2/EGFR/VEGFR2 enzyme, HER2/EGFR/VEGFR2 substrate, ATP and kinase buffer 1 for 100 enzyme reactions. […] […] The quinazolin-4(3H)-ones were diluted in 10% DMSO and 5 μl of the dilution was added to a 50 μl reaction so that the final concentration of DMSO was 1% in all of the reactions. All of the enzymatic reactions were conducted at 30 °C for 40 min. The 50 μl reaction mixture contained 40 mM Tris, pH 7.4, 10 mM MgCl2, 0.1 mg/mL BSA, 1 mM DTT, 10 mM ATP, kinase substrate and the enzyme HER2 / EGFR / VEGFR2. After the enzymatic reaction, 50 μl of Kinase-Glo® MAX luminescence kinase assay solution was added to each reaction and the plates were incubated for 5 min at room temperature. Luminescence signal was measured using a Bio Tek Synergy 2 microplate reader (For detail enzyme assay protocol and the results, please see supplementary data).
(Kinase-Glo reads ATP consumption through a luciferase reaction.)
As to `CCOC(=O)CSc1nc2cc(OC)c(OC)cc2c(=O)n1Cc1ccccc1` [2i, Ethyl 2-((3-benzyl-6,7-dimethoxy-4-oxo-3,4-dihydroquinazolin-2-yl)thio)acetate], the inhibition at 0.01 µM was 8.13%.

The same data set, now with this note: 0.1 µM; one experimental data; read-out: % Inhibition VEGFR-2.
On to `CCOC(=O)CSc1nc2cc(OC)c(OC)cc2c(=O)n1Cc1ccccc1` [2i, Ethyl 2-((3-benzyl-6,7-dimethoxy-4-oxo-3,4-dihydroquinazolin-2-yl)thio)acetate], for which the inhibition at 0.1 µM turned out to be 31.8%.

Still in this data set, the particulars now being: 1 µM; one experimental data; read-out: % Inhibition VEGFR-2.
In the case of `CCOC(=O)CSc1nc2cc(OC)c(OC)cc2c(=O)n1Cc1ccccc1` [2i, Ethyl 2-((3-benzyl-6,7-dimethoxy-4-oxo-3,4-dihydroquinazolin-2-yl)thio)acetate], the inhibition at 1 µM was 20.3%.

Staying with this data set, now noted: 10 µM; one experimental data; read-out: % Inhibition VEGFR-2.
As to `CCOC(=O)CSc1nc2cc(OC)c(OC)cc2c(=O)n1Cc1ccccc1` [2i, Ethyl 2-((3-benzyl-6,7-dimethoxy-4-oxo-3,4-dihydroquinazolin-2-yl)thio)acetate], the inhibition at 10 µM was 77.8%.

Staying with this data set, now noted: mean ± SD of triplicate.
Consider `CCOC(=O)CSc1nc2cc(OC)c(OC)cc2c(=O)n1Cc1ccccc1` [2i, Ethyl 2-((3-benzyl-6,7-dimethoxy-4-oxo-3,4-dihydroquinazolin-2-yl)thio)acetate], for which the 50% inhibitory concentration (IC50) was 2846 ± 14 nM.

The target of the next data set is T3, HER2 (Homo sapiens, UniProt P04626).
T3 construct: purchased #40721
T3 sequence (P04626 23-1255): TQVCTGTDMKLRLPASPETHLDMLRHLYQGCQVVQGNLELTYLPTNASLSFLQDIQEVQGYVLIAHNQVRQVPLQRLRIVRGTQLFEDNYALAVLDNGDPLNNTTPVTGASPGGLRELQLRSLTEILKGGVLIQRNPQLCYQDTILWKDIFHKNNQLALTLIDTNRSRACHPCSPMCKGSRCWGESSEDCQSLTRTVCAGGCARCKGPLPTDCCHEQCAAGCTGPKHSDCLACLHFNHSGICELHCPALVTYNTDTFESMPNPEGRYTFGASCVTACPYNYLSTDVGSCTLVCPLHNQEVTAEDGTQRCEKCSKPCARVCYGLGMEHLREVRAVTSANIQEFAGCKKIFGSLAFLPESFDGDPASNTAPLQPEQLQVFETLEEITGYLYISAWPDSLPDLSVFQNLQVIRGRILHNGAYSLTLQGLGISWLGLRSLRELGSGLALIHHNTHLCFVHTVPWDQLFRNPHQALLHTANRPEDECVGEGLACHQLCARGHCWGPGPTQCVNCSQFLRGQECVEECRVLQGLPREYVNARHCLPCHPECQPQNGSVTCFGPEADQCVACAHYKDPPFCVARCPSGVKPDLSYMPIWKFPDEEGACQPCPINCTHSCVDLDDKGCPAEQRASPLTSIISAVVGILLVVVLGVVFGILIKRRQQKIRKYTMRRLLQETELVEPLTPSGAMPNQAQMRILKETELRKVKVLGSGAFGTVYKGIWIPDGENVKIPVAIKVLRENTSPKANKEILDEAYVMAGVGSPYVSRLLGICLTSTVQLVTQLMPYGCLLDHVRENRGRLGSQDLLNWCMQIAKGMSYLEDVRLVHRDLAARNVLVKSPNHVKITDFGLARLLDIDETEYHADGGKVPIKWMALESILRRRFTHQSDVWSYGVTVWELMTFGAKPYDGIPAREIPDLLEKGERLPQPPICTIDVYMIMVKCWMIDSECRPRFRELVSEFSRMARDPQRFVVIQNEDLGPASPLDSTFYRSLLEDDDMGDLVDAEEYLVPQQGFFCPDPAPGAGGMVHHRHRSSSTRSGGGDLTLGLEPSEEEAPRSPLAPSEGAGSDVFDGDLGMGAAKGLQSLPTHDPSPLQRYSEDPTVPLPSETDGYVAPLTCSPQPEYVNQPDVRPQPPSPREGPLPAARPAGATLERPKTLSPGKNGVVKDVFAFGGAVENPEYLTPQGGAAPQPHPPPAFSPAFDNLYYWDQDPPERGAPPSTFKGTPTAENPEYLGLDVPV
The data set is described as follows: HER2 kinase assay kit, Kinase-Glo MAX luminescence. The class given is biochemical. The conditions noted are these: 0.01 µM; one experimental data. As for the experimental part: as §2
As for `CCOC(=O)CSc1nc2cc(OC)c(OC)cc2c(=O)n1Cc1ccccc1` [2i, Ethyl 2-((3-benzyl-6,7-dimethoxy-4-oxo-3,4-dihydroquinazolin-2-yl)thio)acetate], the inhibition at 0.01 µM stood at 20.4%.

The data set is the same for the next values; noted with them: 0.1 µM; one experimental data.
Regarding `CCOC(=O)CSc1nc2cc(OC)c(OC)cc2c(=O)n1Cc1ccccc1` [2i, Ethyl 2-((3-benzyl-6,7-dimethoxy-4-oxo-3,4-dihydroquinazolin-2-yl)thio)acetate], the inhibition at 0.1 µM turned out to be 24.4%.

The data set is the same for the next values; noted with them: 1 µM; one experimental data.
On to `CCOC(=O)CSc1nc2cc(OC)c(OC)cc2c(=O)n1Cc1ccccc1` [2i, Ethyl 2-((3-benzyl-6,7-dimethoxy-4-oxo-3,4-dihydroquinazolin-2-yl)thio)acetate], for which the inhibition at 1 µM stood at 83.7%.

Still in this data set, the particulars now being: 10 µM; one experimental data.
Take `CCOC(=O)CSc1nc2cc(OC)c(OC)cc2c(=O)n1Cc1ccccc1` [2i, Ethyl 2-((3-benzyl-6,7-dimethoxy-4-oxo-3,4-dihydroquinazolin-2-yl)thio)acetate]: the inhibition at 10 µM was 94.8%.

Still in this data set, the particulars now being: mean ± SD of triplicate.
`CCOC(=O)CSc1nc2cc(OC)c(OC)cc2c(=O)n1Cc1ccccc1` [2i, Ethyl 2-((3-benzyl-6,7-dimethoxy-4-oxo-3,4-dihydroquinazolin-2-yl)thio)acetate]: the IC50 worked out at 128 ± 24 nM.

Another data set addresses T1, CDK2/CyclinA2. The data set is described as follows: CDK2 Assay Kit, Kinase-Glo MAX luminescence. It is filed as biochemical. The note with it: 0.01 µM; one experimental data. On the procedure:
The CDK2 Assay Kit is designed to measure CDK2/CyclinA2 activity for screening and profiling applications, using Kinase-Glo® MAX as a detection reagent. The CDK2 Assay Kit comes in a convenient 96-well format, with enough purified recombinant CDK2/CyclinA2 enzyme, CDK substrate peptide, ATP and kinase assay buffer for 100 enzyme reactions. […] […] The compounds were diluted in 10% DMSO and 5 μl of the dilution was added to a 50 μl reaction so that the final concentration of DMSO was 1% in all of the reactions. All of the enzymatic reactions were conducted at 30 °C for 40 min. The 50 μl reaction mixture contained 40 mM Tris, pH 7.4, 10 mM MgCl2, 0.1 mg/mL BSA, 1 mM DTT, 10 mM ATP, Kinase substrate and the enzyme (CDK2/CyclinA2). After the enzymatic reaction, 50 μl of Kinase-Glo® MAX Luminescence kinase assay solution was added to each reaction and the plates were incubated for 5 min at room temperature. Luminescence signal was measured using a Bio Tek Synergy 2 microplate reader.
Figure S1. Calculation of the IC20 Values of Protein Kinase Enzyme CDK2 for 2f
* All the kinase IC20 (µM) were calculated according to the above equations.
(1 picture or pasted object on this page, not shown here)
For `CCOC(=O)CSc1nc2cc(OC)c(OC)cc2c(=O)n1Cc1ccccc1` [2i, Ethyl 2-((3-benzyl-6,7-dimethoxy-4-oxo-3,4-dihydroquinazolin-2-yl)thio)acetate], the inhibition at 0.01 µM came to 4.28%.

Staying with this data set, now noted: 0.1 µM; one experimental data.
On to `CCOC(=O)CSc1nc2cc(OC)c(OC)cc2c(=O)n1Cc1ccccc1` [2i, Ethyl 2-((3-benzyl-6,7-dimethoxy-4-oxo-3,4-dihydroquinazolin-2-yl)thio)acetate], for which the inhibition at 0.1 µM was determined as 40.5%.

The same data set, now with this note: 1 µM; one experimental data.
On to `CCOC(=O)CSc1nc2cc(OC)c(OC)cc2c(=O)n1Cc1ccccc1` [2i, Ethyl 2-((3-benzyl-6,7-dimethoxy-4-oxo-3,4-dihydroquinazolin-2-yl)thio)acetate], for which the inhibition at 1 µM came out at 37.8%.

Staying with this data set, now noted: 10 µM; one experimental data.
For the molecule `CCOC(=O)CSc1nc2cc(OC)c(OC)cc2c(=O)n1Cc1ccccc1` [2i, Ethyl 2-((3-benzyl-6,7-dimethoxy-4-oxo-3,4-dihydroquinazolin-2-yl)thio)acetate], the inhibition at 10 µM was determined as 83.7%.

Test system in the next data set: not given
Assay: not given
Conditions: not given
`CCOC(=O)CSc1nc2cc(OC)c(OC)cc2c(=O)n1Cc1ccccc1` [2i, Ethyl 2-((3-benzyl-6,7-dimethoxy-4-oxo-3,4-dihydroquinazolin-2-yl)thio)acetate] returned a melting point of 104 to 105 °C.

The next data set concerns A2780 (human ovary adenocarcinoma) cells. The experiment in a line: MTT cytotoxicity assay, A2780. The note with it: Homo sapiens, A2780, mean ± SD of triplicate. It is filed as cell-based. As for the experimental part:
as §1
On to `CCOC(=O)CSc1nc2cc(OC)c(OC)cc2c(=O)n1Cc1ccccc1` [2i, Ethyl 2-((3-benzyl-6,7-dimethoxy-4-oxo-3,4-dihydroquinazolin-2-yl)thio)acetate], for which 1160 ± 100 nM corresponded to half-maximal inhibition (IC50).

For the next data set, the target named is T4, EGFR (Homo sapiens, UniProt P00533).
T4 construct: purchased #40321
T4 sequence (P00533 25-1210): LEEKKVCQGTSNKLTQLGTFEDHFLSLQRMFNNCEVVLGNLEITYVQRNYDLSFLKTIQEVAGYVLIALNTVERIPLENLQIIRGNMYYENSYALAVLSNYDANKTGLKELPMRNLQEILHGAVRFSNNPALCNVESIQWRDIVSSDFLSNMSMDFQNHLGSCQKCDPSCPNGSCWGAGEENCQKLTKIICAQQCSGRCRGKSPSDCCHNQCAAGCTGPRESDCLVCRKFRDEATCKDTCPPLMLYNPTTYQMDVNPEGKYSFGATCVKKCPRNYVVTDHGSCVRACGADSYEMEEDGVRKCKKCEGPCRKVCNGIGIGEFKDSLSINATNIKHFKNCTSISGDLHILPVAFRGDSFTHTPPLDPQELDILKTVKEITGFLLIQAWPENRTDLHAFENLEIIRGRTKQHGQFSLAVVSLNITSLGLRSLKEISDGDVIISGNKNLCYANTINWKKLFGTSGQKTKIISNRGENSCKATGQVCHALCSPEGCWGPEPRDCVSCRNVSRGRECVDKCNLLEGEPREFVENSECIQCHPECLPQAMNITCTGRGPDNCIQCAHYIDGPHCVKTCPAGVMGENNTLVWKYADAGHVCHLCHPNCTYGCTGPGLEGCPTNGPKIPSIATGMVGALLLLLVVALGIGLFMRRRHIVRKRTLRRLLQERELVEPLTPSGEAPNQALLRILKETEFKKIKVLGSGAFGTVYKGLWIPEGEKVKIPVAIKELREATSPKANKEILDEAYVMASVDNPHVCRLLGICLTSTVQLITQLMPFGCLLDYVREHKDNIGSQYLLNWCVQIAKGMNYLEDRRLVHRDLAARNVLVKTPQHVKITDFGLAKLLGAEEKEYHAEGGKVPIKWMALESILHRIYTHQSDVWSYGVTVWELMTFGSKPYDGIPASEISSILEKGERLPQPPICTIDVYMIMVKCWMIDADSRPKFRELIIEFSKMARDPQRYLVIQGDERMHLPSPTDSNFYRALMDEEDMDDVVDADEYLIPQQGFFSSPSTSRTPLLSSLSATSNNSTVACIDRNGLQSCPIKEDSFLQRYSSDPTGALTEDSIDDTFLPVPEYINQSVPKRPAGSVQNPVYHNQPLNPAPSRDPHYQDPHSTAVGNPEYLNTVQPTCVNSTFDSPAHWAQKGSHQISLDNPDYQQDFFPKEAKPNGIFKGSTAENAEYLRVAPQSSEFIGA
The experiment in a line: EGFR kinase assay kit, Kinase-Glo MAX luminescence. The class given is biochemical. The conditions noted are these: 0.01 µM; one experimental data. On the procedure:
as §2
On to `CCOC(=O)CSc1nc2cc(OC)c(OC)cc2c(=O)n1Cc1ccccc1` [2i, Ethyl 2-((3-benzyl-6,7-dimethoxy-4-oxo-3,4-dihydroquinazolin-2-yl)thio)acetate], for which the inhibition at 0.01 µM was found to be 11.8%.

The data set is the same for the next values; noted with them: 0.1 µM; one experimental data.
Regarding `CCOC(=O)CSc1nc2cc(OC)c(OC)cc2c(=O)n1Cc1ccccc1` [2i, Ethyl 2-((3-benzyl-6,7-dimethoxy-4-oxo-3,4-dihydroquinazolin-2-yl)thio)acetate], the inhibition at 0.1 µM amounted to 43.7%.

Staying with this data set, now noted: 1 µM; one experimental data.
With `CCOC(=O)CSc1nc2cc(OC)c(OC)cc2c(=O)n1Cc1ccccc1` [2i, Ethyl 2-((3-benzyl-6,7-dimethoxy-4-oxo-3,4-dihydroquinazolin-2-yl)thio)acetate], the inhibition at 1 µM came to 39.1%.

The data set is the same for the next values; noted with them: 10 µM; one experimental data.
Regarding `CCOC(=O)CSc1nc2cc(OC)c(OC)cc2c(=O)n1Cc1ccccc1` [2i, Ethyl 2-((3-benzyl-6,7-dimethoxy-4-oxo-3,4-dihydroquinazolin-2-yl)thio)acetate], the inhibition at 10 µM was determined as 82.3%.

The same data set, now with this note: mean ± SD of triplicate.
As for `CCOC(=O)CSc1nc2cc(OC)c(OC)cc2c(=O)n1Cc1ccccc1` [2i, Ethyl 2-((3-benzyl-6,7-dimethoxy-4-oxo-3,4-dihydroquinazolin-2-yl)thio)acetate], the IC50 was 97 ± 19 nM.

For orientation: IC50 means the midpoint of a concentration-inhibition curve. The term inhibition denotes the percentage by which the read-out fell short of the control. By melting point is commonly meant the temperature of the solid-liquid transition.
